Results published in patent publication US9308215B2, “Avermectins and milbemycins as anti-mycobacterial agents” (priority 2013, dated 2016).
≈ marks a conversion by molar mass, not a printed value. Where two headings read alike, the source gives them in different places.

Tested on: M. tuberculosis
Experiment: microbe, parasite or virus in culture
Type: cell-based, Mycobacterium tuberculosis
Settings: resistance profile INH; for MIC90: Mycobacterium tuberculosis
[1] = read-out: In vitro MIC90, strain BC-MDR2, RIF, PZA, SM, RBT
[2] = read-out: In vitro MIC90, strain BC-MDR3, RIF, RBT
[3] = read-out: In vitro MIC90, strain BC-MDR4, RIF, EMB, PZA, RBT
[4] = read-out: In vitro MIC90, strain BC-MDR5, RIF, PZA, SM, PAS, RBT
[5] = read-out: In vitro MIC90, strain CI5058, RIF
[6] = read-out: In vitro MIC90, strain CI5072, RIF, SM
[7] = read-out: In vitro MIC90, strain CI5297
[8] = read-out: In vitro MIC90, strain CI5305
[9] = read-out: In vitro MIC90, strain CI5324, RIF
[10] = read-out: In vitro MIC90, strain CI5358, EMB, ETH
[11] = read-out: In vitro MIC90, strain CI5400, RIF
[12] = read-out: In vitro MIC90, strain CI5447
[13] = read-out: In vitro MIC90, strain CI5459, EMB, ETH
[14] = read-out: In vitro MIC90, strain CI12081, RIF, SM, EMB, ETH
[15] = read-out: In vitro MIC90, strain KZN5, RIF, SM, EMB, ETH, KM, PZA
[16] = read-out: In vitro MIC90, strain KZN6, RIF, SM, EMB, ETH, KM, PZA
[17] = read-out: In vitro MIC90, strain KZN11, RIF, SM, EMB
[18] = read-out: In vitro MIC90, strain KZN12, RIF, SM, EMB, ETH, KM, PZA
[19] = read-out: In vitro MIC90, strain KZN14, RIF, SM, EMB, ETH, KM, PZA
[20] = read-out: In vitro MIC90, strain KZN15, RIF, SM, EMB, ETH, KM, PZA
[21] = read-out: In vitro MIC90, strain KZN16, RIF, SM, EMB, ETH, KM, PZA
[22] = read-out: In vitro MIC90, strain V2475, RIF

## CO/N=C1\C[C@]2(C[C@@H]3C[C@@H](C/C=C(\C)C[C@@H](C)/C=C/C=C4\CO[C@@H]5[C@H](O)C(C)=C[C@@H](C(=O)O3)[C@]45O)O2)O[C@H](/C(C)=C/C(C)C)[C@H]1C [Moxidectin]
[1]
  MIC90: 2 to 4 µg/mL (≈ 3.13 to 6.25 µM)
[2]
  MIC90: 1 to 2 µg/mL (≈ 1.56 to 3.13 µM)
[3]
  MIC90: 2 to 4 µg/mL (≈ 3.13 to 6.25 µM)
[4]
  MIC90: 2 to 4 µg/mL (≈ 3.13 to 6.25 µM)
[5]
  MIC90: 6 µg/mL (≈ 9.38 µM)
[6]
  MIC90: 3 µg/mL (≈ 4.69 µM)
[7]
  MIC90: 6 µg/mL (≈ 9.38 µM)
[8]
  MIC90: 1.5 µg/mL (≈ 2.34 µM)
[9]
  MIC90: 3 µg/mL (≈ 4.69 µM)
[10]
  MIC90: 3 µg/mL (≈ 4.69 µM)
[11]
  MIC90: 3 µg/mL (≈ 4.69 µM)
[12]
  MIC90: 0.8 to 1.5 µg/mL (≈ 1.25 to 2.34 µM)
[13]
  MIC90: 1.5 µg/mL (≈ 2.34 µM)
[14]
  MIC90: 3 µg/mL (≈ 4.69 µM)
[15]
  MIC90: 3 µg/mL (≈ 4.69 µM)
[16]
  MIC90: 3 µg/mL (≈ 4.69 µM)
[17]
  MIC90: 3 µg/mL (≈ 4.69 µM)
[18]
  MIC90: 1.5 µg/mL (≈ 2.34 µM)
[19]
  MIC90: 3 to 6 µg/mL (≈ 4.69 to 9.38 µM)
[20]
  MIC90: 3 µg/mL (≈ 4.69 µM)
[21]
  MIC90: 1.5 µg/mL (≈ 2.34 µM)
[22]
  MIC90: 3 µg/mL (≈ 4.69 µM)

## CC[C@H](C)[C@H]1O[C@]2(CC[C@@H]1C)C[C@@H]1C[C@@H](C/C=C(\C)[C@@H](O[C@H]3C[C@H](OC)[C@@H](O[C@H]4C[C@H](OC)[C@@H](O)[C@H](C)O4)[C@H](C)O3)[C@@H](C)/C=C/C=C3\CO[C@@H]4[C@H](O)C(C)=C[C@@H](C(=O)O1)[C@]34O)O2 [Ivermectin]
Strain BC-MDR2, RIF, PZA, SM, RBT
  In vitro MIC90: > 128 µg/mL
Strain BC-MDR3, RIF, RBT
  In vitro MIC90: 1 to 2 µg/mL
Strain BC-MDR4, RIF, EMB, PZA, RBT
  In vitro MIC90: 4 to 16 µg/mL
Strain BC-MDR5, RIF, PZA, SM, PAS, RBT
  In vitro MIC90: 4 to 16 µg/mL
Strain CI5058, RIF
  In vitro MIC90: 6 µg/mL
Strain CI5072, RIF, SM
  In vitro MIC90: >24 µg/mL
Strain CI5297
  In vitro MIC90: 6 µg/mL
Strain CI5305
  In vitro MIC90: 3 µg/mL
Strain CI5324, RIF
  In vitro MIC90: 6 µg/mL
Strain CI5358, EMB, ETH
  In vitro MIC90: 3 µg/mL
Strain CI5400, RIF
  In vitro MIC90: 3 µg/mL
Strain CI5447
  In vitro MIC90: 1.5 µg/mL
Strain CI5459, EMB, ETH
  In vitro MIC90: 3 µg/mL
Strain CI12081, RIF, SM, EMB, ETH
  In vitro MIC90: >24 µg/mL
Strain H37Rv mc^24977
  In vitro MIC90: 6 µg/mL
Strain H37Rv mc^25857, RIF
  In vitro MIC90: 3 µg/mL
Strain H37Rv mc^25858, RIF
  In vitro MIC90: 3 µg/mL
Strain KZN5, RIF, SM, EMB, ETH, KM, PZA
  In vitro MIC90: 6 µg/mL
Strain KZN6, RIF, SM, EMB, ETH, KM, PZA
  In vitro MIC90: 6 µg/mL
Strain KZN11, RIF, SM, EMB
  In vitro MIC90: 3 µg/mL
Strain KZN12, RIF, SM, EMB, ETH, KM, PZA
  In vitro MIC90: 3 µg/mL
Strain KZN14, RIF, SM, EMB, ETH, KM, PZA
  In vitro MIC90: 6 to 12 µg/mL
Strain KZN15, RIF, SM, EMB, ETH, KM, PZA
  In vitro MIC90: 6 µg/mL
Strain KZN16, RIF, SM, EMB, ETH, KM, PZA
  In vitro MIC90: 3 µg/mL
Strain V2475, RIF
  In vitro MIC90: 1.5 µg/mL

## CO[C@H]1C[C@H](O[C@@H]2/C(C)=C/C[C@@H]3C[C@@H](C[C@]4(CC[C@H](C)[C@@H](C5CCCCC5)O4)O3)OC(=O)[C@@H]3C=C(C)/C(=N/O)[C@H]4OC/C(=C\C=C\[C@@H]2C)[C@]43O)O[C@@H](C)[C@@H]1O [Selamectin]
[1]
  MIC90: 2 µg/mL (≈ 2.6 µM)
[2]
  MIC90: 0.5 to 1 µg/mL (≈ 0.649 to 1.3 µM)
[3]
  MIC90: 2 µg/mL (≈ 2.6 µM)
[4]
  MIC90: 2 µg/mL (≈ 2.6 µM)
[5]
  MIC90: 6 µg/mL (≈ 7.79 µM)
[6]
  MIC90: 3 to 6 µg/mL (≈ 3.9 to 7.79 µM)
[7]
  MIC90: 3 µg/mL (≈ 3.9 µM)
[8]
  MIC90: 1.5 µg/mL (≈ 1.95 µM)
[9]
  MIC90: 3 µg/mL (≈ 3.9 µM)
[10]
  MIC90: 1.5 µg/mL (≈ 1.95 µM)
[11]
  MIC90: 3 µg/mL (≈ 3.9 µM)
[12]
  MIC90: 1.5 µg/mL (≈ 1.95 µM)
[13]
  MIC90: 1.5 to 3 µg/mL (≈ 1.95 to 3.9 µM)
[14]
  MIC90: 3 µg/mL (≈ 3.9 µM)
[15]
  MIC90: 3 µg/mL (≈ 3.9 µM)
[16]
  MIC90: 6 µg/mL (≈ 7.79 µM)
[17]
  MIC90: 3 µg/mL (≈ 3.9 µM)
[18]
  MIC90: 3 µg/mL (≈ 3.9 µM)
[19]
  MIC90: 6 µg/mL (≈ 7.79 µM)
[20]
  MIC90: 3 µg/mL (≈ 3.9 µM)
[21]
  MIC90: 1.5 µg/mL (≈ 1.95 µM)
[22]
  MIC90: 1.5 µg/mL (≈ 1.95 µM)
